Key:
PDH = conditions: cited from earlier work
[1] = after repeated administration (Evans and Stacpoole 1982); cited from earlier work

melting point | Structure (SMILES) | activity of PDH (PDH; after acute administration in animals (Vary et al., 1988)) | proportion of PDH in its active form (PDH; single administration, 150 mg/kg, intraperitoneally (Vary et al. 1988)) | plasma glucose [1]
123 to 124 °C | Cc1cc(C(=O)c2ccccc2)ccc1NC(=O)C(C)(O)C(F)(F)F (centres unmarked) |  |  | 
121 to 122 °C | C[C@@](O)(C(=O)Nc1ccc(S(=O)(=O)c2ccccc2)cc1F)C(F)(F)F |  |  | 
 | O=C(O)C(Cl)Cl [DCA, dichloroacetic acid] | increases the activity of PDH | increased the proportion of PDH in its active form | significant decrease in plasma glucose
